From PMC11022693, “Targeting C21orf58 is a Novel Treatment Strategy of Hepatocellular Carcinoma by Disrupting the Formation of JAK2/C21orf58/STAT3 Complex” (Advanced Science, 2024)

Target: T1, C21orf58 (Homo sapiens, UniProt P58505)
T1 construct: human C21orf58 in pET-21a, expressed in E. coli Rosetta (DE3), Ni-NTA purified, lyophilized
Assay: 1H NMR of mixed ligand and purified protein
Assay type: binding
Conditions: deuterated water; mixed and incubated 30 min at room temperature; 600 MHz

T1 sequence (P58505 whole entry): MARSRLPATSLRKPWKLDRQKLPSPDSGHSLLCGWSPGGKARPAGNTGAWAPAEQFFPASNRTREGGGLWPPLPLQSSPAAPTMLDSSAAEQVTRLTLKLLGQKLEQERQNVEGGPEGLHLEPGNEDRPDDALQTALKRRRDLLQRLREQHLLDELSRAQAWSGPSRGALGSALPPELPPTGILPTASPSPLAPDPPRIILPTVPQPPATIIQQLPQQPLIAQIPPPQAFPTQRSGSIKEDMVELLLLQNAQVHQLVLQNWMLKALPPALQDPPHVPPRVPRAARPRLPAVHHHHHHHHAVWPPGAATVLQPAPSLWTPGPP

C=C(C)CNc1ccc(C(C)C(=O)O)cc1 (stereo not shown) [alminoprofen]
1H NMR of mixed ligand and purified protein: H Nuclear Magnetic Resonance Spectra suggested that alminoprofen could bind on the C21orf58 protein
